# Data from a melting point compilation (Tetko et al.; mined from patent text by program, amines drawn as free bases though some values may be those of a salt).
row,SMILES,melting point [°C]
1,COc1ccc(CCNC(=O)C=Cc2cccs2)cc1S(=O)(=O)NC(=S)NC(C)C,96
2,NC(=O)CCN1CC(O)CC1=O (stereo not given),99 to 100
3,O=C1CCCc2cc(O)c(Cl)c(Cl)c21,244 to 246
4,NC(=O)Cc1ccc(CCCOCCCCCCBr)cc1,110 to 113
5,CNc1nc(N(C2CC(C)(C)N(O)C(C)(C)C2)C2CC(C)(C)N(O)C(C)(C)C2)nc(N(C2CC(C)(C)N(O)C(C)(C)C2)C2CC(C)(C)N(O)C(C)(C)C2)n1,254 to 257
6,COc1ccc(-c2nc(CCO)nc3cc(OC)c(OC)cc23)cc1OC,165 to 166
7,COc1cc(OC)nc(Sc2sccc2NS(=O)(=O)CC#N)c1,118 to 120
8,CCCCCCOc1ccc(CCCCCCCCC(=O)N(C)O)cc1,59 to 61
9,COc1nc(N)nc(OCC(F)(F)F)n1,78 to 80
10,CC(=O)Oc1ccc(C=CC(=O)C=Cc2ccc(OC(C)=O)c(OC(C)=O)c2)cc1OC(C)=O,70 to 72
11,Cc1cc([N+](=O)[O-])c(Cl)c([N+](=O)[O-])c1S(N)(=O)=O,205 to 215
12,C=CC(=O)NC(C)(C)COc1ccc(Cl)cc1,95 to 96
13,COc1ccc(CC2(C(=O)N[C@@H](Cc3ccc(NC(=O)c4c(Cl)cccc4Cl)cc3)C(=O)O)CCCCC2)cc1,136 to 140
14,CS(=O)(=O)Nc1ccc(C(=O)NC(=O)N2CCC(Oc3ccc(Cl)cc3)CC2)cc1,79
15,O=C(O)c1cn(Cc2cnsn2)c2nc(Cl)c(F)cc2c1=O,231 to 232
16,CC(=O)NC[C@H]1CN(c2ccc(N3CCN(C(=O)CCC(=O)c4ccc(CN(C)C)cc4)CC3)c(F)c2)C(=O)O1,190 to 192
17,CCOC(=O)/C=C/C(=O)Nc1ccc2ncnc(Nc3cccc(Br)c3)c2c1,259 to 263
18,CCCCC1OC(=O)c2cc(NC(C)C)ccc21 (stereo not given),72 to 74
19,CC1CC=C(c2nnn[nH]2)CN1CC(=O)O (stereo not given),136 to 138
20,CCCCCCCCCCCCCCCCCCOC(=O)CP(=O)(OCC)OCC,28 to 31
21,CC(C)(C)OC(=O)N1CCC(C(=O)c2cccs2)CC1,154 to 156

row,SMILES,melting point [°C]
1,CCCCCCCCCCCCCCCCCC(=O)OC1CC(C)(C)N(OC(C)=O)C(CC)(CC)C1 (stereo not given),41 to 44
2,Nc1cccc(-c2ccc(CCN3CCN(C(=O)C4CCCC4)CC3)cc2)n1,185 to 187
3,O=C1NC(=O)C(CCCOc2ccc(F)cc2)S1 (stereo not given),119 to 121
4,CCOC(NC(=O)c1cccc(OC)c1)C(N)=O (stereo not given),143 to 144
5,CC(C)N(CCCC(=NNC(N)=S)c1ccccc1)C(=O)C1CCCCC1,112 to 114
6,CC(=O)C(=[N+]=[N-])C(=O)c1ccccn1,69 to 74
7,COC(=O)c1c[nH]c(C(=O)c2cc(OC)cc(OC)c2)c1,115 to 120
8,COC(=O)c1ccc2nc(SCCN3CCN(CC(=O)Nc4c(C(C)C)cccc4C(C)C)CC3)oc2c1C(=O)OC,186 to 187
9,Cc1oc(C(C)(C)C)nc1COc1ccc(CC(OC(C)C)C(=O)O)c2sccc12 (stereo not given),166 to 167
10,C=Cc1c(C)c(NC(=O)CC(C)(C)C)c(C)c2c1OCC2c1ccc(C(C)C)cc1 (stereo not given),171 to 172
11,CNc1cc(NS(=O)(=O)c2ccc(N)cc2)nc(N(C)C)n1,253 to 254
12,CCCCCS(=O)(=O)NC(=O)/C=C/c1ccc(OCCOCCOC)cc1Oc1ncc(C(F)(F)F)cc1Cl,81 to 83
13,Cc1c(CO)oc2c(Br)cccc12,103
14,COc1ccc(NC(=O)c2c(Cl)cccc2Cl)c2nccc(NN)c12,> 250
15,COc1ccc(C2(CCN3CCC(C(=O)c4nc5ccccc5s4)CC3)CCN(C(=O)c3ccccc3)C2)cc1OC (stereo not given),74 to 76
16,O=C(O)C(=O)Nc1cc(NC(=O)C(=O)O)cc(C(=O)O)c1,> 320
17,COC(=O)C1=C(CC(=O)N2CCN(C)CC2)NC(CS(=O)c2ccccc2C)=C(C(=O)OC)C1c1c(Cl)cccc1Cl (stereo not given),183
18,O=C(N[C@H]1C[C@H](C(=O)O)Nc2cc(Cl)cc(Cl)c21)C1CCCCC1 (relative stereo),190 to 195
19,COc1ccc(-c2ccc3nc(NC(=O)c4ccc(C(C)(C)C)cc4)cn3c2)cn1,245 to 247
20,C#CCSc1cc(-c2nn(C)c(SC)c2Cl)c(F)cc1Cl,93 to 96
21,CCOC(=O)c1cc(-c2cc(C)on2)[nH]n1,149 to 151

row,SMILES,melting point [°C]
1,CCCCCCCc1ccc([C@H]2CC[C@H](O)CC2)cc1,80.2 to 82.5
2,C[C@H]1CN(c2c(F)cc3c(=O)c(C(=O)O)cn4c3c2CCN4C)C[C@H]1NC(=O)CNC(=O)OC(C)(C)C (relative stereo),142 to 145
3,CC1Cc2cc(S(N)(=O)=O)cc(C(=O)O)c2O1 (stereo not given),245 to 246
4,C=CCON=C(CC)C1=C(O)CC(c2c(C)c(C)c3c(c2C)CC(C)(CC)C3)CC1=O (stereo not given),64 to 65
5,c1ccc(-n2c3ccccc3c3cc(-n4ccnc4-c4nccn4-c4ccc5c(c4)c4ccccc4n5-c4ccccn4)ccc32)nc1,215 to 227
6,O=c1cc(-c2ccc(F)cc2)c2ccc(Sc3cc(F)cc(C(O)(c4nccs4)C(F)(F)F)c3)cc2o1 (stereo not given),72 to 73
7,CCOCc1nc2c(N)nc3cc(/C=C/C(=O)OC)ccc3c2n1CCCCN1CCCS1(=O)=O,162 to 163
8,Cc1nc(C#CCCc2nc3ccccc3o2)c[nH]1,152 to 154
9,CCOCc1nc2c(N)nc(C)c(C)c2n1CCNC(=O)N1CCOCC1,179 to 181
10,Cc1ccccc1C(=O)CN1C(=O)C(NC(=O)Nc2cccc(CC(O)=S)c2)CN(C(=O)C(C)(C)C)c2ccccc21 (stereo not given),127 to 130
11,O=C(O)c1ccc(OC2=C3N=C4CCCCC4=C3C(Cc3ccc(Cl)cc3)C=C2)o1 (stereo not given),162 to 164
12,CCC(=O)NC(Cl)C(Cl)(Cl)CCl (stereo not given),167
13,CC(=O)NC(CCc1ccccc1)(COC(C)=O)COC(C)=O,116 to 117
14,Clc1nc2cccccc-2n1,162 to 163
15,CN(C)C(=O)Nc1scc(C(C)(C)C)c1C#N,140
16,Cc1ccc2c(c1)nnn2C(=O)N1CCOCC1,81 to 82
17,CCCCCC(=O)n1c(=O)n(-c2ccc(OC)cc2)c(=O)n1C(=O)CCCCC,88 to 90
18,Nc1ccc2c(c1)C(=O)N(CCO)C2=O,171 to 173
19,O=C1CN(Cc2ccccc2)CC2=C1N=C1N=C(N3CCOCC3)NN1C2,291 to 293

# More lines, now with the values ahead:
row,melting point [°C],SMILES
1,69.5 to 70.5,CCOC(=O)c1c(C)cc2cnc(-c3ccccc3Cl)nc2c1C
2,183 to 186,O=S(=O)(Nc1cccc(Br)c1)c1cc(S(=O)(=O)Nc2cccc(Br)c2)c2ccccc2c1
3,149 to 151,Cc1nc(N2CCN(Cc3ccccc3)C2=O)sc1C(=O)NCc1ccccn1
4,140 to 144,CN1CCCC1=NC(=O)Nc1ccccc1
5,148 to 150,CC(C)(C)c1cc(C(C)(C)C)c2oc(-c3cccc([N+](=O)[O-])c3O)nc2c1
6,106,CC(=O)N1C(=O)OC[C@@H]1Cc1ccccc1
7,153 to 155,O=C(O)CCC12CCCn3c1c(c1ccccc13)CCO2 (stereo not given)
8,63 to 65,Fc1ccc(-c2ccccc2)c(F)c1
9,175 to 177,COc1cc2c(cc1OC)C(=O)C(CN1CCC(O)(c3ccccc3)CC1)CC2 (stereo not given)
10,81,Nc1cc(C(=O)N(Cc2ccccc2)Cc2ccccc2)ccc1OCc1ccccc1
11,128 to 132,CCOC(=O)C1=C(C)NC(COC(N)=O)=C(C(=O)OCC)C1c1ccccc1[N+](=O)[O-] (stereo not given)
12,177,C=CCc1c(O)cc(C)c2ccc(=O)oc12
13,81 to 82,Cc1ccc2c(c1)SC(c1ccc(OCCCCCBr)cc1)C(=O)N2C (stereo not given)
14,139 to 142,CCC1(CCCCN2CCN(c3cccc(Cl)c3)CC2)C(=O)Nc2ccc(Cl)cc21 (stereo not given)
15,93 to 95,CON=C(C(=O)OC)c1ccc(O)c([N+](=O)[O-])c1
16,278 to 280,Cc1[nH]c(C#N)c(C)c1-c1nc2ccc(Oc3ccccc3)cc2[nH]1
17,174,O=C(c1ccc2c(=O)nc(-c3ccccn3)sc2c1)N1CCCC1
18,67 to 68,CCOC(=O)c1ccc(Cc2ccc3c(c2)OCO3)o1
19,154 to 155,COC(=O)c1ccc(-c2nc(-c3ccc(C(C)(C)C)cc3)cs2)cc1
20,64 to 66,CCCCN(C1=C(O)C[C@@](CCc2cccc(O)c2)(C2CCCC2)OC1=O)c1ccccc1

row,melting point [°C],SMILES
1,54 to 58,CCOC(=O)c1c(C2CC2)nn(CC)c1Cc1ccc(-c2ccccc2S(N)(=O)=O)cc1
2,219 to 220,C#Cc1cnc2c(NC(=O)c3c(Cl)cccc3Cl)cccc2c1
3,222 to 224,Cc1[nH]cnc1/C=C/C(=O)c1cc2ccccc2n1C
4,114,COC(=O)CN1Cc2cc(C(=O)c3cccnc3)ccc2N=C1SC
5,208,COC(=O)c1nc(N)sc1-c1ccccc1
6,116,Cc1nc(-c2ccc(F)cc2Cl)nn1-c1ccccc1C(F)(F)F
7,222 to 223,CCCC(=O)NCCCn1c(C)nc2c(N)nc3ccccc3c21
8,120 to 123,Cc1ccc(NC(=N)c2ccncc2)cc1
9,231,O=[N+]([O-])c1ccc(O)c(Cn2c(=S)sc3ccccc32)c1
10,121 to 122,Cc1oc(-c2ccccc2)nc1COc1ccc(C(=O)c2ccccc2O)cc1
11,220 to 222,CS(=O)c1nc(-c2ccc([N+](=O)[O-])cc2)c[nH]1 (stereo not given)
12,210 to 212,Cc1nc(-c2ccc(C(=O)N(C)c3ccc(Cl)cc3)cc2)sc1C(=O)O
13,164 to 166,CC(=NOCCOc1ccc(CC2SC(=O)NC2=O)cc1)c1ccc(-c2ccccc2)cc1 (stereo not given)
14,112 to 114,CS(=O)(=O)Nc1cc(N)ccc1Oc1ccccc1
15,47.4 to 50.1,C=CC(=O)OCCOc1ccc(-c2cccc(F)c2F)cc1
16,103 to 106,CC(c1ccc(OCc2ccc(Cl)cc2Cl)cc1)n1ccnc1 (stereo not given)
17,147 to 149,ON=Cc1cn(C(c2ccccc2)(c2ccccc2)c2ccccc2)c(F)n1
18,73 to 75,Cc1cccc(COc2ccc(C#N)cc2Cl)c1
19,222,CCOC(=O)C1=C(C)Nc2c(C(=O)O)ncn2C1c1cccc([N+](=O)[O-])c1 (stereo not given)
